Measured values from patent US10682362B2, “Treatments and diagnostics for cancers” (Wayne State University, priority 2015, dated 2020).
Like-named read-outs stand apart in the source and are kept apart here. Where a SMILES comes first, the peptide text is derived from it. The star is where a group is joined. Cbz = O=C(OCc1ccccc1)*

Key:
AR-V7 protein [1] = details: 22Rv1 cells, 20 μM Gal; 40 μM calpeptin or PD 66 h; 50 μM ALLM or pan-caspase inhibitor up to 72 h
Excerpt: Western blotting with anti-N20/AR antibody to examine levels of AR and AR-V7 proteins in various prostate cancer cell lines. […] This was followed by Western blotting with specific AR-V7 antibody, with Actin as a loading control.
Western blotting. (a, b) AR-V7 and AR protein levels determined by AR-V7 specific antibody and N20 antibody, respectively. (c) PARP/p89 is a caspase-3 cleavage fragment while PARP/p65 is a calpain cleavage product. (d) Caspase-3 cleavage fragment of Spectrin α2/p120, and a 150 fragment by either caspase-3 or calpain cleavage. (e) Autolysis of calpain small subunit (Cal Sm) to p28 fragment. (f) Calpain cleavage fragment of Calpastatin/p70. […] Caspase-3 activity assay.
In C, (a) Cell lysates were derivatized with 2,4-dinitrophenylhydrazine (DNPH), followed by Western blotting to determine the levels of oxidized proteins (Oxi-P). Actin was used a load control (b). AR-V7 levels were determined by AR-V7 specific antibody (c). PARP/p89 is caspase-3 cleavage fragment while PARP/p65 is calpain cleavage product (d). (e) Autolysis of calpain small subunit (Cal Sm) to p28 fragment. (f) Actin, loading control.

proteasome [2] = molecular target: T1, proteasome (Homo sapiens, UniProt P28072+P28074+Q99436); assay: cellular proteasomal CT-like, PGPH-like and T-like activities in 22Rv1 cells; format: cell-based; parameters: endogenous in cells; host or cells: 22Rv1; details: for inhibition at 20 µM: 22Rv1, 22Rv1 cells, 20 μM Gal
T1 sequence (P28074 60-263): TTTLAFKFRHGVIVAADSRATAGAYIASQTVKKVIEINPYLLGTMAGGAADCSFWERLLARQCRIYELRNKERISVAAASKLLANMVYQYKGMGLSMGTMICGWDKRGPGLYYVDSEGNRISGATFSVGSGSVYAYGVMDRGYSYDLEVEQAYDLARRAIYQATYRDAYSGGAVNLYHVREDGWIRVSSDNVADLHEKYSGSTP
T1 sequence (P28072 1-239): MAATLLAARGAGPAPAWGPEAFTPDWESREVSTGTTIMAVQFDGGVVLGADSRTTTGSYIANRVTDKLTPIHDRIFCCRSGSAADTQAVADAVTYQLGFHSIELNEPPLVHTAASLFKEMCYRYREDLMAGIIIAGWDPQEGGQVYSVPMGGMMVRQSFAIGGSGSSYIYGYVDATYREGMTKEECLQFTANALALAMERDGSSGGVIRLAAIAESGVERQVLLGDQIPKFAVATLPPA
T1 sequence (Q99436 44-277): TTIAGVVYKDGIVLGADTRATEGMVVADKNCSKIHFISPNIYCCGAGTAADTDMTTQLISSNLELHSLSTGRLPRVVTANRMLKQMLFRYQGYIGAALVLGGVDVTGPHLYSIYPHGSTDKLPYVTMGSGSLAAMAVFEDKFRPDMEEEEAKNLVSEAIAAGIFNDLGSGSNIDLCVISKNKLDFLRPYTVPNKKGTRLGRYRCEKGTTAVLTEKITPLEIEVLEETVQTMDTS
Excerpt: (§1) FIGS. 11A-11D. […] Actin was used a load control (b). […] (f) Actin, loading control.

22Rv1 cells [3] = assay: morphological changes and crystal violet staining of 22Rv1 cells; format: cell-based; details: bortezomib 2.5 or 5 nM, Gal 20 μM, 24 h and 48 h
Excerpt: In 12C, cells were fixed with formalin, and then stained with violet overnight.

metastatic CRPC [4] = details: cited from earlier work
DUBs = assay: DUB activity in 22Rv1 cells; format: cell-based; details: 20 μM Gal
Protocol: as §1
(§2) Sustained DUBs inhibition was detected for up to 48 h (FIG. 11A). […] AR-V7 protein level remained subtle changes up to 56 h and decreased after 64-68 h, and completely depleted after 72 h (FIG. 11C, c). […] Consistently, caspase-3-specific cleavage fragments, 89 kD fragment of PARP (PARP/p89) were also detected between 48 and 72 h (FIG. 11C, d). Calpain activation is associated with self-autolysis of its small subunit. […] This finding has important clinical significance.

[5] = system: BTZ-resistant MM 8826 cells; assay: cell proliferation by MTS in BTZ-resistant MM cells; format: cell-based; details: Gal alone at 10 or 20 μM, 24 h
Protocol: FIGS. 13A-C. […] Cell proliferation was determined by MTS. […] Cell death was determined by detection of PARP cleavage. […] Actin was used as loading control.
8826-7BR is a multiple myeloma cell line developed resistance to bortezomib. […] This finding has high translational potential to clinics.

proteasome [6] = assay: proteasome CT-like activity in protein extract of 22Rv1 cells; format: biochemical; details: high concentrations (50 or 100 μM)
22Rv1 cells [7] = assay: cell proliferation by MTT in 22Rv1 cells; format: cell-based; details: Gal alone, 24 h
[8] = system: 19S proteasome-associated DUB; assay: DUBs activity of purified 26S proteasome (Ub-AMC substrate); format: biochemical
Protocol: (§3) FIGS. 10A-10E. […] Purified 20S proteasome was used a control; BG, background (10D).
(§4) Then deubiquitinase (DUBs) activity associated with the 19S proteasome was determined by using the purified 26S proteasome.

caspase-3 = assay: Caspase-3 activity assay in 22Rv1 cells; format: cell-based; details: 20 μM Gal
[9] = system: CRPC with C-terminal AR loss; details: Phase 2 ARMOR2; cited from earlier work
proteasome [10] = molecular target: T1, proteasome; assay: cellular proteasomal activities in VCaP cells; format: cell-based; parameters: endogenous in cells; details: 5-20 μM Gal, 72 h
Excerpt: Therefore, Gal-induced proteasome inhibition occurs prior to activation of calpain/caspases and loss of AR-V7 protein (FIGS. 4 vs. 2).

[11] = system: oxidized proteins (Oxi-P); assay: oxidized proteins (DNPH derivatization, Western blotting) in 22Rv1 cells; format: cell-based; details: 20 μM Gal
Protocol: as §1, §2

purified 20S proteasome = purified 20S proteasome (Homo sapiens, UniProt P28072+P28074+Q99436); assay: proteasome activities of purified 20S proteasome; format: biochemical; details: 15 min
Protocol: as §3, §4

calpain [12] = assay: calpain activation by cleavage fragments (Western blotting) in 22Rv1 cells; format: cell-based; details: 20 μM Gal, same time points as p28 (48 to 72 h)
purified 26S proteasome = purified 26S proteasome (Homo sapiens, UniProt P28072+P28074+Q99436); assay: proteasome activities of purified 26S proteasome; format: biochemical; details: 15 min
Protocol: as §3, §4

[13] = system: full length AR (AR-FL) protein; assay: Western blotting of full length AR (anti-AR N20) in 22Rv1 cells; format: cell-based
calpain [14] = details: cited from earlier work
AR-V7 = details: 5 μM of MG132; cited from earlier work
proteasome [15] = details: cited from earlier work
metastatic CRPC [16] = details: phase III clinical trials; versus 10.9 months placebo; cited from earlier work
AR-V7 protein [17] = assay: Western blotting of AR-V7 in nuclear and cytosolic fractions of 22Rv1 cells; format: cell-based; details: for rescue of Gal-induced nuclear AR-V7 loss: androgen-starved 22Rv1 cells, 20 μM Gal plus 40 μM calpeptin or 20 μM Z-VAD
Excerpt: Nuclear fractions were isolated and separated by Western blotting to determine AR-V7 levels. Actin was used as a loading control.

With `CSCC[C@@H](C=O)NC(=O)[C@H](CC(C)C)NC(=O)[C@H](CC(C)C)NC(C)=O` [ALLM, N-acetyl-L-leucyl-L-leucyl-L-methioninal] (Ac-Leu-Leu-Met-aldehyde) as the compound, how does the “rescue of Gal-induced AR-V7 loss by inhibitor” value (AR-V7 protein [1]) read?
Its value is “rescue AR-V7 loss partially”.

What does the source list for `CC(C)C[C@H](NC(=O)[C@H](Cc1ccccc1)NC(=O)c1cnccn1)B(O)O` [BTZ]?
proteasomal CT-like activity (proteasome [2]; 22Rv1 cells, BTZ alone, 48 h): caused proteasomal CT-like inhibition; proteasomal chymotrypsin (CT)-like activity (proteasome [2]; 22Rv1 cells, BTZ alone, 72 h): dose-dependent inhibition; morphological changes / cell death (22Rv1 cells [3]): did not cause apparent morphological changes

With `CNC(=O)c1ccc(N2C(=S)N(c3ccc(C#N)c(C(F)(F)F)c3)C(=O)C2(C)C)cc1F` [Enzalutamide] as the compound, how does the “patients with PSA level decreased more than 50%” value (metastatic CRPC [4]; chemo-naive patients) read?
The value was 40/65.

And the “patients with PSA level decreased more than 50%” value (metastatic CRPC [4]; chemotherapy-treated patients)?
Its value is 38/75.

What about the “lived longer than those taking placebo” value (metastatic CRPC [4]; interim analysis) of the same compound?
The value was “approximately 5 months”.

Which “earliest time of DUBs inhibition” value (DUBs) does the source give for `C[C@]12CC[C@H](O)CC1=CC[C@@H]1[C@@H]2CC[C@]2(C)C(n3cnc4ccccc43)=CC[C@@H]12` [Gal, (3S,8R,9S,10R,13S,14S)-17-(benzimidazol-1-yl)-10,13-dimethyl-2,3,4,7,8,9,11,12,14,15-decahydro-1H-cyclopenta[a]phenanthren-3-ol] here?
Its value is ≤ 2 h.

And the “sustained DUBs inhibition detected up to” value (DUBs)?
Its value is “up to 48 h”.

What about the “sensitivity of BTZ-resistant MM cells (MTS)” value [5] of the same compound?
Its value is “sensitive to Gal treatment alone”.

And the “CT-like activity of the proteasome” value (proteasome [6])?
Its value is “could inhibit the CT-like activity”.

What about the “cell proliferation (MTT)” value (22Rv1 cells [7]) of the same compound?
Its value is “did not inhibit cell proliferation”.

What about the “DUBs activity of purified 26S proteasome” value ([8]; Gal 20 μM, 15 min) of the same compound?
The value was “suppressed”.

And the “DUBs activity of purified 26S proteasome” value ([8]; Gal at a low dose (10 μM))?
Its value is “could efficiently inhibit DUBs activity”.

And the “time after which caspase-3 activity increased” value (caspase-3)?
The value was ≥ 24 h.

And the “time at which caspase-3 activity reached the highest” value (caspase-3)?
The value was 48 h.

And the caspase-3 activation (caspase-3; after 48 h)?
Its caspase-3 activation is 5 fold.

And the “response of Abi- and Enz refractory CRPC patients with C-terminal AR loss” value [9]?
Its value is “remain responsive”.

What about the three proteasomal activities (proteasome [10]) of the same compound?
Its three proteasomal activities is “dose-dependent inhibition”.

And the “sustained accumulation of oxidized proteins detected up to” value [11]?
Its value is “up to 72 h”.

What about the “time before which oxidized proteins accumulated” value [11] of the same compound?
The value was < 2 h.

And the inhibition at 20 µM (proteasome [2]; after 64 h)?
Its inhibition at 20 µM is > 50%.

What about the inhibition at 20 µM (proteasome [2]; at 48 h) of the same compound?
Its inhibition at 20 µM is 30%.

And the inhibition at 20 µM (proteasome [2]; between 2-24 h)?
The inhibition at 20 µM was 10%.

What about the “proteasomal CT-like activities, time course” value (proteasome [2]; 22Rv1 cells, 20 μM Gal up to 72 h) of the same compound?
Its value is “inhibited in a time-dependent fashion, but later than DUBs inhibition”.

And the “proteasomal CT-like activity” value (proteasome [2]; 22Rv1 cells, 5-20 μM Gal, 24 h)?
Its value is “dose-dependent decrease”.

And the “proteasomal PGPH-like activity” value (proteasome [2]; 22Rv1 cells, 5-20 μM Gal, 24 h)?
The value was “dose-dependent decrease”.

What about the “proteasomal trypsin (T)-like activity” value (proteasome [2]; 22Rv1 cells, 5-20 μM Gal, 24 h) of the same compound?
The value was “but not trypsin (T)-like activities”.

What about the “all three proteasomal activities” value (proteasome [2]; 22Rv1 cells, 5-20 μM Gal, 48 h) of the same compound?
The value was “decreased in a Gal dose-dependent fashion”.

What about the “three proteasomal activities (CT, PGPH and T-like)” value (purified 20S proteasome) of the same compound?
Its value is “unable to block all the three proteasomal activities”.

And the “calpain cleavage product Calpastatin/p70” value (calpain [12])?
The value was “detected at the same time points”.

And the “three proteasomal activities (CT, PGPH and T-like)” value (purified 26S proteasome)?
Its value is “unable to block all the three proteasomal activities”.

What about the “time after which full length AR (AR-FL) protein decreased” value ([13]; 20 μM Gal for up to 72 h) of the same compound?
The value was ≥ 48 h.

And the “AR-FL protein expression in cytosolic and nuclear fractions” value ([13]; 20 μM Gal, anti-AR N20 antibody)?
Its value is “a decrease in both cytosolic and nuclear AR-FL protein expression”.

And the “morphological changes / cell death” value (22Rv1 cells [3])?
Its value is “did not cause apparent morphological changes”.

Which IC50 (calpain [14]) does the source give for `CC(C)C[C@@H](C=O)NC(=O)[C@H](CC(C)C)NC(=O)[C@H](CC(C)C)NC(=O)OCc1ccccc1` [MG132] (Cbz-Leu-Leu-Leu-aldehyde) here?
The IC50 was 1200 nM.

And the “inhibition of Gal-induced AR-V7 degradation” value (AR-V7)?
Its value is “could be inhibited”.

And the IC50 (proteasome [15])?
The IC50 was 100 nM.

With `O=C(O)/C(S)=C/c1ccc(I)cc1` [PD150606] as the compound, how does the “rescue of Gal-induced AR-V7 loss by inhibitor” value (AR-V7 protein [1]) read?
The value was “rescue AR-V7 loss partially”.

For `CC(=O)O[C@H]1CC[C@@]2(C)C(=CC[C@@H]3[C@@H]2CC[C@]2(C)C(c4cccnc4)=CC[C@@H]32)C1` [abiraterone acetate], which median survival (metastatic CRPC [16]) is on record?
Its median survival is 14.8 months.

Which “rescue of Gal-induced AR-V7 loss by inhibitor” value (AR-V7 protein [1]) does the source give for `CCCC[C@@H](C=O)NC(=O)[C@H](CC(C)C)NC(=O)OCc1ccccc1` [calpeptin, Z-Leu-Nle-CHO] here?
The value was “rescue AR-V7 loss partially”.

What about the “block of Gal-induced nuclear AR-V7 depletion” value (AR-V7 protein [17]; 22Rv1 cells, 20 μM Gal plus 40 μM calpeptin, 56 h and 72 h) of the same compound?
The value was “could be blocked”.

And the “rescue of Gal-induced nuclear AR-V7 loss” value (AR-V7 protein [17])?
Its value is “partially rescued AR-V7 loss by Gal”.

For Z-VAD, which “rescue of Gal-induced nuclear AR-V7 loss” value (AR-V7 protein [17]) is on record?
Its value is “able to block the Gal-induced AR-V7 depletion”.
